Laboratory results taken from patent US20080293664A1, “Non-nucleoside reverse transcriptase inhibitors” (Roche Palo Alto LLC, priority 2007, published 2008).
pIC50: −log10 of the molar value. Where a name gives a salt, the structure may show the parent alone. Read-outs that look alike come from different tables or passages of the source.

Columns and labels:
[1] = system: HXB2-strain of HIV in MT4 cells; experiment: Antiviral assay: protection of HIV-infected MT4 cells from cell death (MTT); type: cell-based; conditions: read-out: Antiviral Assay IC50
Protocol: Antiviral Assay Method Anti-HIV antiviral activity was assessed using an adaptation of the method of Pawls et al. (J. Virol Methods 1988 20:309-321). The method is based on the ability of compounds to protect HIV-infected T lymphoblastoid cells (MT4 cells) from cell-death mediated by the infection. The endpoint of the assay was calculated as the concentration of compound at which the cell viability of the culture was preserved by 50% (‘50% inhibitory concentration’, IC50). The cell viability of a culture was determined by the uptake of soluble, yellow 3-[4,5-dimethylthiazol-2-yl]-2,5-diphenyltetrazolium bromide (MTT) and its reduction to a purple insoluble formazan salt. After solubilization, spectrophotometric methods were employed to measure the amount of formazan product. MT4 cells were prepared to be in logarithmic-phase growth and a total of 2×10^6 cells infected with the HXB2-strain of HIV at a multiplicity of 0.0001 infectious units of virus per cell in a total volume of between 200-500 microliters. […] When the formazan deposit was fully solubilized by further mixing, the absorbance (OD) of the cultures was measured at 540 nm and 690 nm wavelength (690 nm readings were used as blanks for artifacts between wells). The percent protection for each treated culture was then calculated from the equation: [formula] […]

[2] = target: HIV-1 Reverse Transcriptase (Human immunodeficiency virus type 1 group M subtype B, UniProt P03366); experiment: HIV-1 Reverse Transcriptase Assay (RNA-dependent DNA polymerase activity, SPA); type: biochemical; conditions: HIV-RT enzyme 1-3 nM, 30° C. for 30 min, 10% DMSO
Protocol: HIV-1 Reverse Transcriptase Assay
RNA-dependent DNA polymerase activity was measured using a biotinylated primer oligonucleotide and tritiated dNTP substrate. Newly synthesized DNA was quantified by capturing the biotinylated primer molecules on streptavidin coated Scintillation Proximity Assay (SPA) beads (Amersham). The sequences of the polymerase assay substrate were: 18nt DNA primer, 5′-Biotin/GTC CCT GTT CGG GCG CCA-3′; 47nt RNA template, 5′-GGGUCUCUCUGGUUAGACCACUCUAGCAGUGGCGCCCGAACAGGGAC-3′. The biotinylated DNA primer was obtained from the Integrated DNA Technologies Inc. and the RNA template was synthesized by Dharmacon. The DNA polymerase assay (final volume 50 μl) contained 32 nM biotinylated DNA primer, 64 nM RNA substrate, dGTP, dCTP, dTTP (each at 5 μM), 103 nM [^3H]-dATP (specific activity=[…]), in 45 mM Tris-HCl, pH 8.0, 45 mM NaCl, 2.7 mM Mg(CH3COO)2, 0.045% Triton X-100 w/v, 0.9 mM EDTA. The reactions contained 5 ul of serial compound dilutions in 100% DMSO for IC50 determination and the final concentrations of DMSO were 10%. Reactions were initiated by the addition of 30 μl of the HIV-RT enzyme (final concentrations of 1-3 nM). Protein concentrations were adjusted to provide linear product formation for at least 30 min of incubation. […] The beads were left to settle overnight and the SPA signals were counted in a 96-well top counter-NXT (Packard). […]

Row | Compound | pIC50 ([1]; Human immunodeficiency virus 1, 120 h, MT4 cells infected with HXB2-strain of HIV, 5 days, MTT viability) | melting point | pIC50 [2] | pIC50 ([1]; Human immunodeficiency virus 1, HXB2, MT4, 120 h)
1 | N#Cc1cc(Cl)cc(C(=O)c2cc(Cl)ccc2OCc2n[nH]c3ncccc23)c1 [Compound I-2, 3-Chloro-5-[5-chloro-2-(1H-pyrazolo[3,4-b]pyridin-3-ylmethoxy)-benzoyl]-benzonitrile] | 8.43 | 194.3 to 195.9 °C | 7.61 | 
2 | N#Cc1cc(Cl)cc(Oc2c(Cl)ccc(OCc3n[nH]c4ncccc34)c2F)c1 [Compound I-3, 3-Chloro-5-[6-chloro-2-fluoro-3-(1H-pyrazolo[3,4-b]pyridin-3-ylmethoxy)-phenoxy]-benzonitrile, trifluoroacetate salt] |  |  | 7.96 | 8.10
3 | N#Cc1cc(Cl)cc(C(=O)c2c(CNc3n[nH]c4ncccc34)ccc(Br)c2F)c1 [Compound I-9] |  | 214 to 215 °C |  | 
